Measurements published in US4105603A, “Peptides which effect release of hormones” (The Salk Institute for Biological Studies, priority 1977, dated 1978).
Non-standard residues stand in square brackets, D forms with d.

Legend:
[1] = tested on: rat anterior pituitary cells; experiment: In vitro bioassay: secretion of growth hormone by primary cultures of dissociated rat anterior pituitary cells; type: cell-based; details: cultured rat anterior pituitary cells, somatostatin = 100
Procedure: In vitro Bioassay: The effects of the various peptides of the invention were tested in vitro on the secretion of growth hormone by primary cultures of enzymatically dissociated rat anterior pituitary cells by the method of Vale et al., Endocrinology 91: p 562-571 (1972). The assay is made by treating pituitary glands removed from rats to separate cells therefrom. The cells are placed in culture dishes in Dulbecco's Modified Eagle Medium (Dulbecco et al., Virology, Vol. 8, p. 396, […]). Carbon dioxide gas and oxygen are supplied to the cell cultures which are maintained at 37° C for 4-5 days prior to use in the assay. Following media changes, cell cultures are incubated for a period of 4 hours and particular somatostatin peptides are added thereto. Radioimmunoassay analysis is used to determine the rate of growth hormone secretion which is expressed in nanograms per hour.
GH determinations were performed on tissue culture media utilizing the following reagents: NIAMDD rat GH standard (GH-RP-1), NIAMDD monkey anti-rat GH (GH-Serum-3), and highly purified rat GH for iodination.
(§1) All experiments were carried on in a randomized block design. Following analysis of variance difference between treatments were determined by the multiple range tests of Dunnett and Duncan. Potency values were calculated from four or six point bioassays.

glucagon secretion = experiment: In vivo bioassay: inhibition of glucagon release, portal vein plasma after i.v. peptide; set-up: species or system Sprague-Dawley-CD rats; details: rat, external jugular vein administration, somatostatin = 100
Procedure: (§2) An investigation of the effect of somatostatin, dihydrosomatostatin, (as controls) and the peptides of the invention to inhibit the release of glucagon and insulin was made as follows:
(§3) In vivo Bioassay: Male Sprague-Dawley-CD rats weighing 180-200 g housed in temperature and humidity controlled quarters with 14h light and 10h dark (light 0700-[…]) were used in all experiments. Animals were fed a standard ration and tap water ad libitum. Experiments were carried out at least 5 days after arrival of rats from the supplier between the hours 1400 to 1600. After ether anesthesia, peptides or saline were administered in a volume of 0.2 ml. via the external jugular vein. Animals remained anesthetized until the time of blood collection from the portal vein. […]
(§4) Plasma was stored at -20° C for insulin and glucagon determinations. Insulin levels were determined by the method of Herbert et al, […]. […] Glucagon was determined by the method of Faloona and Unger, in Jaffe et al ed., Methods of Hormone Radioimmunoassay, Academic Press, New York, 1974, p. […] was determined by the glucose oxidase method, utilizing a Beckman Glucose Analyzer.
as §1

insulin secretion = experiment: In vivo bioassay: inhibition of insulin release, portal vein plasma after i.v. peptide; set-up: species or system Sprague-Dawley-CD rats; details: rat, external jugular vein administration, somatostatin = 100
Procedure: as §2, §3, §4, §1

Row | Compound | percent effectiveness for inhibiting secretion of Growth Hormone, somatostatin taken as the base [1] [%] | percent effectiveness for inhibiting secretion of Glucagon, somatostatin taken as the base (glucagon secretion) [%] | percent effectiveness for inhibiting secretion of Insulin, somatostatin taken as the base (insulin secretion) [%]
1 | C[C@H](N)C(=O)NCC(=O)N[C@H]1CSSC[C@@H](C(=O)O)NC(=O)[C@H](CO)NC(=O)[C@H]([C@@H](C)O)NC(=O)[C@H](Cc2ccccc2)NC(=O)[C@H]([C@@H](C)O)NC(=O)[C@H](CCCCN)NC(=O)[C@H](Cc2c[nH]c3ccccc23)NC(=O)[C@H](Cc2ccccc2)NC(=O)[C@H](Cc2ccccc2)NC(=O)[C@H](CC(N)=O)NC(=O)[C@H](CCCCN)NC1=O [Somatostatin, somatostatin] | 100 | 100 | 100
2 | H-CFF[dW]KFFC-OH (cysteine pairing not given here) [desR1 D-Trp Phe desR4 desR5] | 6 | 100 | 80
